Values quoted from earlier work, collected in patent US20110263659A1, “Analogs of 1-Methylnicotinamide” (Cortria Corporation, priority 2008, published 2011).

Experiments:
[1] = human subjects; studies from Smolenski et al.
[2] = tested on: prostacyclin (PGI2) release; settings: preclinical; PCT/IB06/004013, PCT/EP05/050057, US 11/715,660
[3] = di-hydro-MNA 1 mmol/kg s.c., HPLC

Row | Molecule | half life [1] [h] | ability to stimulate the release of prostacyclin (PGI2) [2] | increase of brain tissue levels of 1-MNA (factor) (di-hydro-MNA 1 mmol/kg s.c.) | increase in liver 1-MNA levels [3] [fold] | increase in plasma 1-MNA levels [3] [fold] | maximum 1-MNA levels in brain extracellular fluid (di-hydro-MNA 1-3 mmol/kg s.c.) [µM]
1 | 1-Methylnicotinamide [1-MNA] | 2 to 3 | ability to stimulate the release of prostacyclin (PGI2) | – | – | – | –
2 | CN1C=CCC(C(N)=O)=C1 [di-hydro-MNA, 1,4-dihydro-1-methylnicotinamide] | – | – | twenty | 9 | 4 | > 10
